Data on nine compounds can be found in patent US9187496B2 (priority 2009, dated 2015).

Each structure is given as a SMILES string. Where two headings read alike, the source gives them in different places.

The test system of data set [1] is HCV genotype 1a H77 strain (H1a-luc replicon / 1a-H77NS5a intergenotypic replicon). Put plainly: Luciferase replicon assay, genotype 1a. It counts as cell-based. The source says:
To generate the 1a-H77NS5a intergenotypic plasmid, dual cut sites were inserted into the ZS11-luciferase genotype 1b backbone that would bracket the NS5a region almost in its entirety. Using PCR and 1a-H77 specific primers also containing the corresponding restriction enzyme sites, the NS5a gene was amplified from the 1a-H77 replicon. The ZS11-luciferase genotype 1b backbone and the genotype 1a NS5a PCR products were restriction enzyme digested and then ligated using standard molecular cloning techniques. The newly constructed plasmid contains the genotype 1a-specific NS5a gene where as the backbone remains 1b as described herein.
(§1) These new intergenotypic plasmids were used to establish stable cell lines. RNA was generated from the NS5A intergenotypic plasmids and used in conjunction with a lipofectin reagent to transfect a cured Huh7 cell line. Transfected cells were selected for with G418. After selection has occurred the stable cell lines were propagated, tested for luciferase activity, and RT-PCR with genotype specific primers (either 1a, 2a, 3a, or 4a). Stable cell lines containing the intergenotypic replicon were then fully sequenced and analysed for proper expression of NS3, NS5A and NS5B proteins.
(§2) Drug titration analysis was performed using the luciferase replicon assay described herein.
(§3) The HCV luciferase replicon assay measures the ability of a test compound to inhibit HCV replication in cell culture after 3 days of treatment in a human hepatoma cell line (Huh-7) bearing a HCV replicon containing a luciferase-neomycin phosphotransferase fusion gene. The inhibition of HCV replication was measured by quantification of luciferase protein expression. Briefly, Huh-7 cells containing either the HCV genotype 1a H77 strain or genotype 1b Conl strain subgenomic luciferase replicon (H1a-luc or Zluc, respectively) were grown in DMEM containing glucose, L-glutamine and sodium pyruvate, 10% fetal bovine serum (FBS), 100 IU/mL penicillin, 100 μg/mL streptomycin, 2 mM GlutaMAX, non-essential amino acids and 0.25 (H1a-luc) or 0.5 (Zluc) mg/mL G418. GlutaMAX was obtained from Invitrogen, Corp.; all other media reagents were obtained from Mediatech, Inc. For dose-response testing, the cells were seeded in 96-well plates at 1×10^4 (H1a-luc) or 7.5×10^3 (Zluc) cells/well in a volume of 50 μL, and incubated at 37° C./5% CO2. Three hours after plating, 50 μL of ten 5-fold serial dilutions of compound were added, and cell cultures were incubated at 37° C./5% CO2 for 72 hours. In all cases, Huh-7 cells lacking the HCV replicon served as negative control. To assess luciferase expression, the media/compound was removed from the plates and ONE-glo Luciferase assay reagent (Promega) was added to each well. The assay plates were shaken for 3 minutes at room temperature and luciferase activity for each well was measured with a 1 sec read time on the Victor^3V multilabel counter using a 700 nm cut-off filter (Perkin Elmer). EC50 values were calculated from dose response curves from the resulting best-fit equations determined by Microsoft Excel and XLfit 4.1 software.

Data set [2] deals with HCV genotype 3a-specific NS5A gene within the 1b-replicon. The experiment in a line: Luciferase replicon assay, NS5A-intergenotypic stable cell line genotype 3a. Type of data set: cell-based. The conditions noted are these: Hepatitis C virus, read-out: EC50 3a.
Excerpt: (§4) The nucleotide sequences of the NS5A region of genotype 2a (GenBank Accession #AB047639), genotype 3a (GenBank Accession #D17763), and genotype 4a (GenBank Accession#DQ418788) were synthesized by an outside vendor. The NS5A region of each of these genotypes included the first 11 amino acids of the protease recognition sequence of genotype 1b, as well as the last 10 amino acids of genotype 1b. The NS5A gene cassettes were excised with site specific restriction endonucleases and ligated into a ZS11-luciferase genotype 1b backbone (backbone contains the genotype 1b NS3 protease, NS4a, NS4b, and NS5b coding regions) with similarly cut restriction enzyme sites. Thus, the newly constructed plasmid contains a genotype 2a-, 3a- or 4a-specific NS5A gene within the 1b-replicon.
as §1, §2, §3
(In general: A replicon is a self-replicating genome or part of one, used to study replication in cells.)

Data set [3] is described as follows: Cytotoxicity evaluation in luciferase replicon cells (Cell Titer 96 AQueous One). Type of data set: cell-based, human. The conditions noted are these: human; Table 1B, cellular viability. Here is the method:
For cytotoxicity evaluation, H1a-luc or Zluc cells were treated with compounds as described above and cellular viability was monitored using the Cell Titer 96 AQueous One Solution Cell Proliferation Assay (Promega). Plates were then read at 490 nm in a Victor^3V 1420 multilabel counter (Perkin Elmer) and CC50 concentrations were determined using Microsoft Excel and XLfit 4.1 software.

Data set [4] has as its system HCV genotype 1b Conl strain subgenomic luciferase replicon (Zluc). The experiment in a line: Luciferase replicon assay, genotype 1b. It counts as cell-based. The conditions noted are these: Hepatitis C virus, 72 h, read-out: EC50 1b. As for the experimental part:
as §3

Data set [5] deals with HCV genotype 4a-specific NS5A gene within the 1b-replicon. The experiment in a line: Luciferase replicon assay, NS5A-intergenotypic stable cell line genotype 4a. Type of data set: cell-based. The conditions noted are these: Hepatitis C virus, read-out: EC50 4a.
Excerpt: as §4, §1, §2, §3

For data set [6], the system named is HCV genotype 2a-specific NS5A gene within the 1b-replicon. The experiment in a line: Luciferase replicon assay, NS5A-intergenotypic stable cell line genotype 2a. Type of data set: cell-based. As to conditions: Hepatitis C virus, read-out: EC50 2a.
Excerpt: as §4, §1, §2, §3

Data set [7] has as its system Huh-7 cells containing HCV Con1 subgenomic replicon (GS4.1 cells). Put plainly: HCV replicon assay (NS5A ELISA). Type of data set: cell-based. The conditions noted are these: Hepatitis C virus, Huh-7; GS4.1 cells, 72 hrs, NS5A ELISA; read-out: EC50. The procedure, abridged: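 GS4.1 cells dosed 3 h after seeding with ten 2-fold dilutions from 75 μM, or single 15 μM, in 0.5% DMSO for 72 h at 37° C; NS5A measured by ELISA (A-236 antibody, OPD, A492). EC50 from four-parameter sigmoidal fit of % inhibition.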

Data set [8] in a line: Cytotoxicity evaluation in GS4.1 cells (Cell Titer 96 AQueous One). It counts as cell-based, human. As to conditions: human, cellular viability. Here is the method:
(§5) For cytotoxicity evaluation, GS4.1 cells were treated with compounds as described above and cellular viability was monitored using the Cell Titer 96 AQueous One Solution Cell Proliferation Assay (Promega). CC50 values were determined from the % cytotoxicity versus concentration data with Tecan Magellan software as described above.

Data set [9] concerns GS4.1 cells. Described as above. As to conditions: cellular viability. It counts as cell-based, human. Here is the method:
as §5

Where [10] appears, read: Hepatitis C virus, read-out: EC50 1a, genotype 1a.

Take `COC(=O)NC(C(=O)N1CCCC1c1ncc(-c2cc3sc(-c4ccc5[nH]c(C6CCCN6C(=O)C(NC(=O)OC)C(C)C)nc5c4)cc3s2)[nH]1)C(C)C` (stereo in doubt) [Compound A176, ((S)-1-{(S)-2-[5-(5-{(S)-2-[1-((S)-2-methoxycarbonylamino-3-methyl-butyryl)-pyrrolidin-2-yl]-3H-benzoimidazol-5-yl}-thieno[3,2-b]thiophen-2-yl)-1H-imidazol-2-yl]-pyrrolidine-1-carbonyl}-2-methyl-propyl)-carbamic acid methyl ester]: the EC50 in data set [1] (setting [10]) is 0.1 to 1 nM; in [2], 0.1 to 1 nM; in data set [4], below 0.1 nM; in data set [5] it was 0.1 to 1 nM; in data set [6], 0.1 to 1 nM. In data set [3], this compound showed a CC50 at 72 h of 10000 to 75000 nM.

For `COC(=O)N[C@@H](C(=O)N1CCCC1c1ncc(-c2cn3cc(-c4ccc(-c5cnc([C@@H]6CCCN6C(=O)[C@H](NC(=O)OC)c6ccccc6)[nH]5)cc4)nc3s2)[nH]1)c1ccccc1` (stereo partly drawn) [A60], in data set [7], the EC50 is below 1 nM. In data set [8], the CC50 is above 75000 nM.

Turning to `COC(=O)N[C@H](C(=O)N1CCC[C@H]1c1ncc(-c2ccc(-c3csc4c(-c5cnc([C@@H]6CCCN6C(=O)[C@@H](NC(=O)OC)C(C)C)[nH]5)csc34)cc2)[nH]1)C(C)C` [Compound A15, [(S)-1-((S)-2-{4-[4-(6-{2-[(S)-1-((S)-2-methoxycarbonylamino-3-methyl-butyryl)-pyrrolidin-2-yl]-3H-imidazol-4-yl}-thieno[3,2-b]thiophen-3-yl)-phenyl]-1H-imidazol-2-yl}-pyrrolidine-1-carbonyl)-2-methyl-propyl]-carbamic acid methyl ester], the EC50 in data set [1] (setting [10]) was below 0.1 nM; in data set [2], 0.1 to 1 nM; in [7], below 1 nM; in data set [4] it was below 0.1 nM; in data set [5], below 0.1 nM; in data set [6], below 0.1 nM. The CC50 at 72 h in data set [3] lay within 10000 to 75000 nM. The CC50 in data set [8] lay in the range of 10000 to 75000 nM.

Turning to `COC(=O)N[C@H](C(=O)N1CCC[C@H]1c1ncc(-c2ccc(-c3csc4c(-c5ccc(-c6cnc([C@@H]7CCCN7C(=O)[C@@H](NC(=O)OC)C(C)C)[nH]6)cc5)csc34)cc2)[nH]1)C(C)C` [Compound A86, ((S)-1-((S)-2-(5-{4-[6-{4-{2-[(S)-1-((S)-2-methoxycarbonylamino-3-methyl-butyryl)-pyrrolidin-2-yl]-3H-imidazol-4-yl}-phenyl)-thieno[3,2-b]thiophen-3-yl]-phenyl}-1H-imidazol-2-yl)-pyrrolidine-1-carbonyl]-2-methyl-propyl}-carbamic acid methyl ester], the concentration for a half-maximal effect (EC50) was 0.1 to 1 nM in [1] (setting [10]); 1 to 10 nM in [2]; below 1 nM in [7]; below 0.1 nM in data set [4]; below 0.1 nM in data set [5]; 1 to 10 nM in [6]. In data set [3], this compound showed a CC50 at 72 h of 10000 to 75000 nM. In [8], this compound displayed a CC50 of 10000 to 75000 nM.

On to `COC(=O)N[C@H](C(=O)N1CCCC1c1ncc(-c2csc3c(-c4ccc(-c5cnc(C6CCCN6C(=O)[C@H](NC(=O)OC)c6ccccc6)[nH]5)cc4)csc23)[nH]1)C(C)C` (stereo partly drawn) [Compound A114], for which the EC50 in data set [1] (setting [10]) is 0.1 to 1 nM; in data set [1] (read-out: EC50 1a, genotype 1a) it was below 0.1 nM; in data set [2] it was below 0.1 nM; in [4] it was below 0.1 nM; in data set [5] it was below 0.1 nM; in [6] it was below 0.1 nM.

Regarding `COC(=O)N[C@H](C(=O)N1CCC[C@H]1c1ncc(-c2ccc(-c3cc4sc(-c5cnc([C@@H]6CCCN6C(=O)[C@@H](NC(=O)OC)C(C)C)[nH]5)cc4s3)cc2)[nH]1)C(C)C` [Compound A126, [(S)-1-((S)-2-{5-[4-(5-{2-[(S)-1-((S)-2-Methoxycarbonylamino-3-methyl-butyryl)-pyrrolidin-2-yl]-3H-imidazol-4-yl}-thieno[3,2-b]thiophen-2-yl)-phenyl]-1H-imidazol-2-yl}-pyrrolidine-1-carbonyl)-2-methyl-propyl]-carbamic acid methyl ester], the EC50 in [2] is 1 to 10 nM; in data set [7] it was below 1 nM; in data set [4], below 0.1 nM; in [5], below 0.1 nM; in data set [6], 0.1 to 1 nM. The same compound yielded a CC50 at 72 h in data set [3] above 75000 nM. The cytotoxic concentration (CC50) in [9] was above 75000 nM.

In the case of `COC(=O)N[C@H](C(=O)N1CCC[C@H]1c1nc(-c2ccc(-c3csc4c(Br)csc34)cc2)c[nH]1)C(C)C` [Compound A155, [(S)-1-((S)-2-{4-[4-(6-bromo-thieno[3,2-b]thiophen-3-yl)-phenyl]-1H-imidazol-2-yl}-pyrrolidine-1-carbonyl)-2-methyl-propyl]-carbamic acid methyl ester], in data set [7], the EC50 lay in the range of 10 to 100 nM. In data set [8], this compound yielded a CC50 of 10000 to 75000 nM.

For the compound `COC(=O)N[C@H](C(=O)N1CCC[C@H]1c1ncc(-c2ccc(-c3cc4sc(-c5ccc6[nH]c([C@@H]7CCCN7C(=O)[C@H](NC(=O)OC)c7ccccc7)nc6c5)cc4s3)cc2)[nH]1)C(C)C` [Compound A194, [(S)-1-((S)-2-{4-[4-(5-{(S)-2-[1-((R)-2-methoxycarbonylamino-2-phenyl-acetyl)-pyrrolidin-2-yl]-3H-benzoimidazol-5-yl}-thieno[3,2-b]thiophen-2-yl)-phenyl]-1H-imidazol-2-yl}-pyrrolidine-1-carbonyl)-2-methyl-propyl]-carbamic acid methyl ester], the EC50 in data set [1] (setting [10]) was 0.1 to 1 nM; in data set [2] it was 0.1 to 1 nM; in data set [4] it was below 0.1 nM; in data set [5], below 0.1 nM; in data set [6], 1 to 10 nM. The compound also yielded a CC50 at 72 h in data set [3] above 75000 nM.

In the case of `COC(=O)N[C@H](C(=O)N1CCC[C@H]1c1nc2ccc(-c3csc4c(-c5ccc6nc([C@@H]7CCCN7C(=O)[C@H](NC(=O)OC)c7ccccc7)[nH]c6c5)csc34)cc2[nH]1)C(C)C` [Compound A208], the concentration for a half-maximal effect (EC50) in data set [1] (setting [10]), in [2], in data set [4], in [5] and in data set [6] was below 0.1 nM throughout. Further, the CC50 at 72 h in [3] was above 75000 nM.

In general, EC50 refers to the midpoint of the concentration-response curve. As usually defined, the CC50 is the concentration giving 50% cytotoxicity.
